Measurements from patent publication US20260137671A1, “PDK4 as a Cell-Aging Intervention Target and Its Use in Chemotherapy and Anticancer” (Shanghai Institute of Nutrition and Health, Chinese Academy …, priority 2022, published 2026).

Tests used:
[1] = system: senescent human stromal cells (PSC27); assay: Seahorse XF24 metabolic profiling of senescent stromal cells; format: cell-based; set-up: ATP production / basal respiration / maximal respiration: dose or concentration left out as unconfirmed
Experimental: FIG. 26. OCR of stromal cells was measured using an XF24 Extracellular Flux Analyzer. In simple, 1.5 μM oligomycin, 0.5 μM FCCP and 0.5 μM Rot/Ant were injected sequentially in order into each well. The glycolysis rate was calculated as the difference between the maximum rate measured before injection and the last rate measured before glucose injection. All Seahorse data were normalized to cell numbers, with all metabolic parameters automatically calculated by WAVE software equipped in the Seahorse. OCR, oxygen consumption rate. Oligo, oligomycin. FCCP, carbonyl cyanide 4-(trifluoromethoxy) phenylhydrazone. Rot, rotenone. Ant, antimycin. […]
After 6 hours of drug treatment, the cells were simply washed 3 times with PBS, left in the culture medium for 7-˜10 days, and then the subsequent experiments were performed.
Next, the inventors measured the levels of extracellular fluids. […] Among them, HK2 and LDHA are glycolysis-related factors, whereas IDH2, IDH3, OGDH and CS are TCA cycle-involving enzymes. As overexpression of PDK4 per se in normal cells neither caused or abrogated senescence, nor affected the SASP (FIG. 38), the inventors reasoned that senescent cell metabolism was correlated with and likely underpinned by expression of key factors involved in glucose consumption and linked with production of pyruvate, lactate and multiple other metabolites.

[2] = system: PC3 cells xenografted together with PSC27 cells; assay: PC3/PSC27 xenograft, tumor end volume after chemotherapy and/or PDK4-IN; format: in vivo, SCID mice
Experimental: All experimental mouse experiments were carried out in strict accordance with the relevant regulations of the Institutional Animal Care and Use Committee (IACUC), Shanghai Institutes for Biological Sciences, Chinese Academy of Sciences. Immuno-deficient mice ICR SCID mice (body weight about 25 g) aged about 6 weeks were used for animal experiments related to the present disclosure. Stromal cells PSC27 and epithelial cells were mixed at a ratio of 1:4, and each graft contained 1.25×10^6 cells for tissue remodeling. The xenograft tumors were implanted into mice by subcutaneous transplantation, and the animals were euthanized 8 weeks after the end of the transplantation surgery. […] For pre-clinical chemotherapeutic studies, mice received subcutaneous implantation were given standard laboratory diets. […] The time points were on the first day of the third, fifth and seventh weeks, with a total of 3 cycles of treatment, and each cycle lasted for 2 weeks. After the course of treatment, mouse […] were collected for tumor measurement and histological analysis. […] The chemotherapy experiment ended at the end of the 8th week, and the mice were dissected immediately after sacrifice, and the xenograft tumors were collected and used for pathological system analysis. To closely mimic clinical conditions involving chemotherapeutic drugs, the inventors designed a preclinical regimen incorporating a genotoxic drug (MIT) and/or the PDK4 inhibitor (PDK4-IN) (FIG. 63).

[3] = system: tumor tissues of mice (PC3/PSC27 xenografts); assay: In vivo cellular senescence and SASP expression in xenograft tumors (LCM transcripts, SA-β-Gal staining); set-up: species or system SCID mice
Source text: (§1) FIG. 66. Transcript assessment of several canonical SASP factors expressed in stromal cells isolated from tumors in SCID mice. LCM isolation, total RNA preparation and expression assays on tissues from animals with simultaneously implanted stromal cells and cancer cells. Note that the group measured as of the lowest value was used as normalization baseline per factor.
as §1, with “67.” for “66.”, “individual” for “several”, “factors (AREG), aging markers (p16/p21) and PDK4” for “factors”
FIG. 68. Representative IHC images of SA-β-Gal staining chromatograms from tissues isolated from animals subjected to placebo or drug treatments. Scale bar, 100 μm. Right, Comparative statistical analysis of SA-β-Gal staining for tissues in mice mentioned above.
Senescence-associated β-galactosidase (SA-β-Gal) staining was performed following a previously reported procedure (Debacq-Chainiaux et al., 2009). Briefly, cells in culture dishes were washed with PBS and fixed at room temperature. Cells were fixed in 2% formaldehyde and 0.2% glutaraldehyde for 3 minutes. SA-β-Gal was used for staining with freshly prepared staining solution overnight at 37° C. Images were taken on the next day and the percentage of positive cells per unit area was calculated.
For pre-clinical chemotherapeutic studies, mice received subcutaneous implantation were given standard laboratory diets. […] The time points were on the first day of the third, fifth and seventh weeks, with a total of 3 cycles of treatment, and each cycle lasted for 2 weeks. After the course of treatment, mouse […] were collected for tumor measurement and histological analysis. […]

[4] = system: mice implanted with recombinant tissues; assay: Survival of tumor-bearing mice in time-extended preclinical cohort (bulky disease, size >2,000 mm^3); format: in vivo; details: PDK4-IN treatment alone versus vehicle
Source text: FIG. 74. Curve of bulky DFS plotted against survival time of implantation with recombinant tissues in mice until animal death attributed to advanced bulky disease development. MS, median survival. P values calculated by two-sided log-rank (Mantel-Cox) tests.
Next, the inventors assessed tumor progression consequence by comparing the survival rate of different animal groups in a time-extended preclinical cohort. During tumor surveillance, bulky disease was considered once the tumor burden became prominent (size >2,000 mm^3).

[5] = senescence-associated change, PDK4-IN treated
[6] = PDK4-IN 10.0 mg/kg combined with MIT 0.2 mg/kg i.p., end of 8-week regimen

Which results are given for `O=C1c2ccccc2C(=O)c2c1cccc2-c1cnn(C2CCNCC2)c1` [PDK4-IN]?
H^+ (proton) leak [1, 5]: reversed changes; lactate production [1, 5]: reversed changes; non-mitochondrial oxygen consumption [1, 5]: reversed changes; pH fluctuation [1, 5]: reversed changes; ATP production ([1]; senescent cells, PDK4-IN-1): further promoted; basal respiration ([1]; senescent cells, PDK4-IN-1): further promoted; maximal respiration ([1]; senescent cells, PDK4-IN-1): further promoted; further decline of tumor volume over MIT alone [2, 6]: 35.5%; total tumor shrinkage compared to the control group [2, 6]: 72.6%; effect on tumor volume as single agent ([2]; PDK4-IN alone, 10.0 mg/kg i.p.): did not provide noticeable benefits; SA-β-gal positivity in tumor tissues ([3]; histological staining, FIG. 68): neither induced senescence nor inhibited senescence; cellular senescence / SASP factor and senescence marker expression in vivo ([3]; single agent or in combination with MIT, FIGS. 66-67): neither induced nor affected cellular senescence; survival benefit as single agent [4]: only marginal survival advantage
